Test results taken from patent US4512924A, “Pyridazo[1,2-a][1,2]diazepines” (Hoffmann-La Roche Inc., priority 1982, dated 1985).

Molecular target: T1, angiotensin converting enzyme (Oryctolagus cuniculus, UniProt P12822)
T1 sequence (P12822 34-1310): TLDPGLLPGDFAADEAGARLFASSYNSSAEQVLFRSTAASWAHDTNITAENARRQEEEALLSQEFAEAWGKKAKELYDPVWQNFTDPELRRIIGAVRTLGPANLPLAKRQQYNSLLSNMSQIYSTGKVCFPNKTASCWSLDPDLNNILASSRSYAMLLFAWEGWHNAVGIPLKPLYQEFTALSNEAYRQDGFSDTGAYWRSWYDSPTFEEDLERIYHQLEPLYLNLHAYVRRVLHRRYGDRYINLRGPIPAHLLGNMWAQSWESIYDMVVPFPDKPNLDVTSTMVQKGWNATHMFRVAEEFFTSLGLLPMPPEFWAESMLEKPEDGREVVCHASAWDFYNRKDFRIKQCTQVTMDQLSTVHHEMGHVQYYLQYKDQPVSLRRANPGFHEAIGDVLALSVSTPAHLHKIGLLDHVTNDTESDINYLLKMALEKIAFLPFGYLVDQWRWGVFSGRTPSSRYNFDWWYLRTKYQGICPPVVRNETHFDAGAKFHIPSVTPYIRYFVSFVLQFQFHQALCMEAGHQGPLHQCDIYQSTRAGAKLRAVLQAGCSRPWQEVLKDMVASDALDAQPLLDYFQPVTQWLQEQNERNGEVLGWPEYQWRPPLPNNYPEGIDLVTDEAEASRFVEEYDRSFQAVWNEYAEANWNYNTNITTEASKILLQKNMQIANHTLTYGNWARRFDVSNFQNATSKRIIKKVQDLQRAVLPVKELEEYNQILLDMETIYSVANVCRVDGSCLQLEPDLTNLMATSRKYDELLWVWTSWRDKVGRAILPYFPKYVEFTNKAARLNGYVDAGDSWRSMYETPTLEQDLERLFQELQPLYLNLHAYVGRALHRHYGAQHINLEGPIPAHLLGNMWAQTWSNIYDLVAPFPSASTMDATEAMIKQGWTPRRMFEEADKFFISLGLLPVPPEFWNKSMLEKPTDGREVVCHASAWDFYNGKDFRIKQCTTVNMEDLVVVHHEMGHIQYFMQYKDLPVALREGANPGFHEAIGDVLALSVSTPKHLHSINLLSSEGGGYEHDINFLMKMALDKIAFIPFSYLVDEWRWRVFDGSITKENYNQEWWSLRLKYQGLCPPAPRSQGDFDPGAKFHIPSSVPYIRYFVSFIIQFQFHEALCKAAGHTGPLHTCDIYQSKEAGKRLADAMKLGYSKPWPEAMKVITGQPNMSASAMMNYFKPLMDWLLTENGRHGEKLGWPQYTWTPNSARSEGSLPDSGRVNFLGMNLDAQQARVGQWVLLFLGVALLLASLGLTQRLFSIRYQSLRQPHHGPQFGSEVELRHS
Assay: in vitro inhibition of angiotensin converting enzyme (cleavage of hippuryl-histidyl-leucine)
Assay type: biochemical
Details: hippuryl-histidyl-leucine 2 mM, potassium phosphate buffer pH 8.3, 100 mM, NaCl 300 mM, 24 minutes at 37° C., read-out: IC50 (concentration of test substance which reduces by 50% the cleavage of hippuryl-histidyl-leucine by angiotensin converting enzyme)
Method: The activity of the present compounds in inhibiting angiotensin converting enzyme in vitro can be determined by the following test.
The method used is based on the method of Cushman and Cheung (Biochem. Pharmacol., 20. 1637-1648) incorporating the modifications introduced by Hayakari et al (Anal. Biochem., 84. 361-369). The substrate (hippuryl-histidyl-leucine, 2 mM) is incubated with angiotensin converting enzyme in the presence or absence of various concentrations of test substance in potassium phosphate buffer (pH 8.3; 100 mM) containing sodium chloride (300 mM) for 24 minutes at 37° C. (total value 500 μl). (If the test substance is an ester, it is appropriate to cleave it by means of hog liver esterase before carrying out the test). The reaction is terminated by the addition of 3 ml of potassium phosphate buffer (pH 8.3; 200 mM) at 0° C. 2,4,6-Trichloro-s-triazine (3%) in 1.5 ml of dioxane is added and the mixture is agitated until the yellow chromophore has developed fully. The samples are then centrifuged to remove any precipitate which has formed. The yellow chromophore formed by the reaction of the 2,4,6-trichloro-s-triazine with free hippuric acid is measured spectrophotometrically at 382 nm. IC50 values are defined as the concentration of test substance which reduces by 50% the cleavage of hippuryl-histidyl-leucine by angiotensin converting enzyme under the aforementioned conditions.
The results obtained in the foregoing test using representative compounds of formula I as the test substance are compiled in the following Table.

IC50 [nM]	SMILES
11	O=C(O)C(CCCc1ccccc1)N[C@H]1CCC(=O)N2CCC[C@@H](C(=O)O)N2C1=O (mixture of isomers) [Compound D, 9(S)-[1(R and S)-carboxy-4-phenylbutylamino]-octahydro-6,10-dioxo-6H-pyridazo[1,2-a][1,2]diazepine-1(S)-carboxylic acid]
4.2	O=C(O)C(CCc1ccccc1)N[C@H]1CCC(=O)N2CCC[C@@H](C(=O)O)N2C1=O (single isomer, unassigned) [Compound A]
22	O=C(O)C(CCc1ccccc1)N[C@H]1CC(=O)N2CCCC(C(=O)O)N2C1=O (single isomer, unassigned) [Compound B]

More lines, now with the values behind:

SMILES	IC50 [nM]
CC(C)CCC(N[C@H]1CCC(=O)N2CCC[C@@H](C(=O)O)N2C1=O)C(=O)O (mixture of isomers) [Compound F, 9(S)-[1(R and S)-carboxy-4-methylpentylamino]-octahydro-6,10-dioxo-6H-pyridazo[1,2-a][1,2]diazepine-1(S)-carboxylic acid]	12
O=C(O)C(CCc1ccccc1)NC1CCN2CCCC(C(=O)O)N2C1=O (racemic) [Compound C, 8-(1-Carboxy-3-phenylpropylamino)-octahydro-9-oxopyridazo[1,2-a]pyridazine-1-carboxylic acid]	55
O=C(O)C(Cc1ccccc1)N[C@H]1CCC(=O)N2CCC[C@@H](C(=O)O)N2C1=O (mixture of isomers) [Compound E, 9(S)-[1(R and S)-carboxy-2-phenylethylamino]-octahydro-6,10-dioxo-6H-pyridazo[1,2-a][1,2]diazepine-1(S)-carboxylic acid]	26
